According to paper PMC11434868, “Synthesis and Antiproliferative Effect of 3,4,5-Trimethoxylated Chalcones on Colorectal and Prostatic Cancer Cells” (Pharmaceuticals, 2024):
Like-named read-outs stand apart in the source and are kept apart here.

What was measured:
[1] = system: HCT116; experiment: MTT assay, antiproliferative effect on HCT116; type: cell-based; settings: Homo sapiens
Method: (§1) Human CRC (HCT116 and HT-29) and PCa (DU145 and PC3) cell lines were purchased from the American Type Culture Collection (ATCC—LGC Standards, Molsheim, France). All cells were grown in RPMI 1640 medium supplemented with 10% FBS, 1% L-glutamine, 100 U/mL penicillin, and 100 μg/mL streptomycin. Cultures were maintained in a humidified atmosphere containing 5% CO2 at 37 °C. Cells were seeded in 75 cm^2 culture flasks at 1.2 × 10^4 cells/cm^2 for HCT116, DU145, and PC3 cells, and 2.0 × 10^4 for HT-29 cells. Cells were grown for 24 h in culture medium prior to exposure or not to obtain the synthesized compounds. Stock solutions (10^−2 M in DMSO) of each compound were diluted in culture medium to obtain appropriate final concentrations.
(§2) • (a) MTT assay: The antiproliferative effect of all compounds was determined using MTT assay (a metabolic activity test). Briefly, cells were seeded in 96-well culture plates at 4 × 10^3 cells/well for HCT116, PC3, and DU145 cells and 6 × 10^3 cells/well for HT-29 cells (100 µL/well), and grown for 24 h in culture medium prior to exposure or not to obtain compounds 1–15 with concentrations ranging from 5 nM to 50 μM. After 24 and 48 h of treatment, MTT (5 mg/mL in PBS) was added and incubated for another 3 h. MTT was then removed from the wells before adding 100 μL/well of DMSO. The optical density was detected with a microplate reader (Multiskan FC, Thermoscientific, Bordeaux, France) at 550 nm and cell viability was expressed as a percentage of each treatment condition compared to control cells. IC50 values were calculated for all compounds from the dose–response curve. Data are expressed as the arithmetic means ± standard error of the mean (SEM) of separate experiments. All experiments were performed at least in triplicate. • (b) Trypan blue dye exclusion method: Cells were grown for 24 h then treated with compounds 10 and 13 at indicated concentrations. After 48 h of treatment, cells were trypsinized and resuspended in complete medium. Each sample was mixed with Trypan blue solution (0.14% in HBSS, Invitrogen-GIBCO, ThermoFisher, Illkirch, France). Colored (non-viable) and dye-excluding (viable) cells were counted with the LUNA-II automated cell Counter (Logos Biosystems; MC2, Aubière, France). The control was normalized to 100% including viable and dead cells. The results indicated on the histograms were expressed as the percentage of cells compared to the control. IC50 values were determined from the percentages of viable cells compared to the control.

[2] = system: HT-29; experiment: MTT assay, antiproliferative effect on HT-29; type: cell-based, human
Method: as §1, §2

[3] = system: DU145; experiment: MTT assay, antiproliferative effect on DU145; type: cell-based; settings: Homo sapiens
Method: as §1, §2

[4] = system: PC3; experiment: MTT assay, antiproliferative effect on PC3; type: cell-based; settings: Homo sapiens
Method: as §1, §2

[5] = system: human CRC (HCT116 and HT-29) and human PCa (DU145 and PC3) cell lines; experiment: MTT assay, summary statements over the cell lines; type: cell-based; settings: Homo sapiens, 48 h; read-out: IC50 over the four cell lines
Method: as §1, §2

[6] = system: cellular microtubules in HeLa cells; experiment: Quantitative assay of the cellular microtubule content (immunoluminescence); type: cell-based; settings: 30 min incubation
Method: The assay was realized as described by Laisne et al.. Briefly, 7500 HeLa cells were seeded in 96-well microplates (#655086, Greiner bioOne, Courtaboeuf, France) in 100 µL of complete medium per well and then incubated at 37 °C in 5% CO2 for 24 h. Cells were then treated for 30 min at 37 °C with the compounds at concentrations ranging from 0.1 to 1000 µM (1 microplate per molecule, 1 concentration per column), with 0.1% DMSO used as […] (6 wells per microplate). After medium aspiration, treated cells were permeabilized for 10 min using 100 µL per well of warmed (37 °C) OPT buffer (80 mM Pipes, 1 mM EGTA, 1 mM MgCl2, 0.5% Triton X-100, and 10% glycerol, pH 6.8). Cells were fixed overnight at room temperature using 100 µL per well of 4% formaldehyde (Sigma Aldrich, #252549, Saint-Quentin-Fallavier, France) in PBS. Cells were washed 3 times in PBS, 0.1% Tween-20 (100 µL per well), then primary anti-alpha-tubulin antibody (clone α3A1), 1:5000 in PBS 2% Bovine Serum Albumin (BSA), was added for 45 min. Cells were washed twice again and secondary anti-mouse antibody coupled to HRP (1:2000 in PBS 2% BSA, #715-035-150, Jackson Immuno-Research Laboratories, Cambridgeshire, UK) was added for 45 min. Then, cells were washed again with PBS and 100 µL of ECL substrate (#170-5061, Bio-Rad Laboratories Inc., Hercules, CA, USA) was injected in each well using the FLUOstar OPTIMA Microplate Reader (BMG Lab technology, Champagny-sur-Marne, France). The luminescent signal was read immediately after ECL injection. IC50 values were calculated using GraphPad Prism software (10.3.1 version) and are presented in the text as means ± SEM of three independent experiments.

[7] = HCT-116, 24 h, read-out: IC50 HCT116 24 h
[8] = HCT-116, 48 h, read-out: IC50 HCT116 48 h
[9] = 48 h, read-out: IC50 HT-29 48 h
[10] = Homo sapiens, HT-29, 24 h, 24 h, read-out: IC50 HT-29 24 h
[11] = Homo sapiens, HT-29, 48 h, 48 h, read-out: IC50 HT-29 48 h
[12] = DU-145, 24 h, read-out: IC50 DU145 24 h
[13] = DU-145, 48 h, read-out: IC50 DU145 48 h
[14] = PC-3, 24 h, read-out: IC50 PC3 24 h
[15] = PC-3, 48 h, read-out: IC50 PC3 48 h

Compound | IC50 [1, 7] [µM] | IC50 [1, 8] [µM] | IC50 [2, 9] [µM] | IC50 [2, 10] [µM] | IC50 [2, 11] [µM] | IC50 [3, 12] [µM] | IC50 [3, 13] [µM] | IC50 [4, 14] [µM] | IC50 [4, 15] [µM] | activity against the HT-29 cell line [2] | melting point [°C] | IC50 [5] [µM] | IC50 depolymerization of cellular microtubules [6]
COc1ccc(O)cc1/C=C/C(=O)c1cc(OC)c(OC)c(OC)c1 [chalcone 5, (E)-3-(5-hydroxy-2-methoxyphenyl)-1-(3,4,5-trimethoxyphenyl)prop-2-en-1-one] | 8.72 ± 0.41 | 4.92 ± 0.49 | 22.1 ± 0.48 | 25.2 ± 1.28 | > 20 | 5.5 ± 0.26 | 4.37 ± 0.3 | 5.54 ± 0.31 | 4 ± 0.3 | – | – | – | –
COc1cc(C(=O)/C=C/c2coc3ccc(O)cc3c2=O)cc(OC)c1OC [chalcone 15, (E)-6-hydroxy-3-(3-oxo-3-(3,4,5-trimethoxyphenyl)prop-1-en-1-yl)-4H-chromen-4-one] | 5.84 ± 0.28 | 14.1 ± 0.27 | – | > 50 | – | 3.88 ± 0.32 | 7.09 ± 0.52 | 6.48 ± 0.4 | 7.6 ± 0.44 | not active | – | – | –
COc1ccc(/C=C/C(=O)c2cc(OC)c(OC)c(OC)c2)c(O)c1 [chalcone 7, (E)-3-(2-hydroxy-4-methoxyphenyl)-1-(3,4,5-trimethoxyphenyl)prop-2-en-1-one] | 13.4 ± 0.21 | 3.99 ± 0.16 | – | 14.4 ± 0.65 | 11.4 ± 0.68 | 2.99 ± 0.33 | 1.33 ± 0.16 | 2.57 ± 0.44 | 1.47 ± 0.27 | – | – | – | –
COc1cc(C(=O)/C=C/c2ccccc2O)cc(OC)c1OC [chalcone 1, (E)-3-(2-hydroxyphenyl)-1-(3,4,5-trimethoxyphenyl)prop-2-en-1-one] | 4.54 ± 0.65 | 3.27 ± 0.11 | – | 10.8 ± 0.57 | 9.65 ± 0.12 | 5.33 ± 0.42 | 3.6 ± 0.1 | 5.04 ± 0.29 | 4.23 ± 0.35 | – | – | – | –
COc1cc(C(=O)/C=C/c2coc3ccc(C(C)C)cc3c2=O)cc(OC)c1OC [chalcone 14, (E)-6-isopropyl-3-(3-oxo-3-(3,4,5-trimethoxyphenyl)prop-1-en-1-yl)-4H-chromen-4-one] | 15.3 ± 0.52 | 13.3 ± 0.3 | – | 22.9 ± 0.72 | 17 ± 1.41 | 13.2 ± 0.49 | 12.4 ± 0.2 | 14.11 ± 0.04 | 12.8 ± 0.37 | – | 183 to 185 | – | –
COc1cc(O)ccc1/C=C/C(=O)c1cc(OC)c(OC)c(OC)c1 [chalcone 4, (E)-3-(4-hydroxy-2-methoxyphenyl)-1-(3,4,5-trimethoxyphenyl)prop-2-en-1-one] | 8.79 ± 0.39 | 3.98 ± 0.22 | – | 21.3 ± 0.94 | 17.7 ± 0.29 | 4.2 ± 0.2 | 2.69 ± 0.22 | 4.8 ± 0.48 | 3.05 ± 0.12 | – | – | – | –
COc1cc(C(=O)/C=C/c2coc3ccccc3c2=O)cc(OC)c1OC [chalcone 12, (E)-3-(3-oxo-3-(3,4,5-trimethoxyphenyl)prop-1-en-1-yl)-4H-chromen-4-one] | 14.2 ± 0.41 | 13.2 ± 0.4 | – | 13.6 ± 0.3 | 13.2 ± 0.42 | 10.8 ± 0.34 | 11.7 ± 0.29 | 11.5 ± 0.28 | 12.2 ± 0.23 | – | 215 to 217 | – | –
COc1ccc(O)c(/C=C/C(=O)c2cc(OC)c(OC)c(OC)c2)c1 [chalcone 6, (E)-3-(2-hydroxy-5-methoxyphenyl)-1-(3,4,5-trimethoxyphenyl)prop-2-en-1-one] | 5.27 ± 0.37 | 3.44 ± 0.42 | – | 12.3 ± 0.37 | 10.6 ± 0.62 | 2.84 ± 0.14 | 2.7 ± 0.1 | 3.31 ± 0.22 | 2.81 ± 0.16 | – | – | – | –
COc1cc(/C=C/C(=O)c2cc(OC)c(OC)c(OC)c2)ccc1O [chalcone 9, (E)-3-(4-hydroxy-3-methoxyphenyl)-1-(3,4,5-trimethoxyphenyl)prop-2-en-1-one] | 8.58 ± 0.28 | 3.48 ± 0.19 | 26.8 ± 0.4 | 32.6 ± 0.51 | > 20 | 3.75 ± 0.15 | 2.41 ± 0.08 | 4.42 ± 0.24 | 2.97 ± 0.13 | – | – | – | –
COc1cc(C(=O)/C=C/c2ccc(=O)[nH]c2)cc(OC)c1OC [chalcone 11, (E)-5-(3-oxo-3-(3,4,5-trimethoxyphenyl)prop-1-en-1-yl)pyridin-2(1H)-one] | 25.2 ± 0.48 | 16.6 ± 0.79 | 23.6 ± 0.37 | 35.6 ± 0.94 | > 20 | 22.3 ± 0.76 | 15.6 ± 0.84 | 24.5 ± 0.64 | 17.7 ± 0.55 | – | 217 to 219 | > 15 | –
COc1cc(C(=O)/C=C/c2ccc(O)cc2)cc(OC)c1OC [chalcone 3, (E)-3-(4-hydroxyphenyl)-1-(3,4,5-trimethoxyphenyl)prop-2-en-1-one] | 11.62 ± 0.06 | 12.1 ± 0.44 | – | 17.9 ± 0.69 | 15.1 ± 0.46 | 11.3 ± 0.48 | 11.2 ± 0.44 | 10.94 ± 0.1 | 9.85 ± 0.43 | – | – | – | no effect
